{
  "source": "patent US8591865B2",
  "about": "“Renal function analysis method and apparatus” (Pharmacophotonics, Inc., priority 2008, dated 2013)",
  "key": {"[1]": {"test": "GFR in dog by iohexol analysis", "conditions": "33.0 kg dog", "quoted_text": "The higher noise in the data was caused by the movement during the data collection as the dog was not anesthetized."}, "[2]": {"test": "GFR by iohexol plasma clearance in gentamycin-induced AKI dogs", "type": "in vivo, dog", "experimental": "EDTA-anticoagulated blood was collected at 0, 5, 10, 20, 30, 60, 180, 240 and 300 minutes post-injection, centrifuged within 3 hours, and stored at -20° C."}, "[3]": {"test": "GFR in swine by iohexol plasma disappearance", "type": "in vivo, Osawbaw swine", "conditions": "same swine"}, "[4]": {"test": "Intravital 2-photon microscopy of plasma clearance (fluorescence intensity / intensity ratio in kidney blood vessels) after bolus infusion", "conditions": "kidney of normal male rat, bolus IV infusion of dye mixture, 12-200 seconds", "quoted_text": "These images were taken as function of time after a bolus intravenous infusion of a dye mixture containing a FITC-inulin (5.5 kD) and 500 kD dextran labeled with a sulforhodamine 101, i.e. Texas Red®. […] A red blood cell (RBC) appears as a dark object as it excludes dye.\nThe intensity ratio from the blood vessels in FIG. 3 changes over time with a change of relative concentrations of the two dyes.\nEach data point in FIG. 5 was the average ratio value of the same region from a blood vessel extracted from an image time-series (such as the images shown in FIG. 3). The data points were plotted every 0.5 seconds up to 200 seconds."}, "dogs": {"tested_on": "dogs", "test": "Gentamycin-induced acute kidney injury in dogs: serum creatinine, BUN, USG, UPC", "type": "in vivo, dog", "conditions": "individual dogs; for Creatinine: gentamycin 10 mg/Kg IV q8 hours", "excerpt": "Five spayed female young adult hound-type mogrel dogs were confirmed to be in good health based on physical examination, complete blood count, blood chemistry analysis, urinalysis, urine protein-to-creatine ratio (UPC) and aerobic urine culture."}},
  "note": "Values joined by “and” are separate entries in the source; they are usually repeats but may differ in a detail not shown here. Identical values can stand only once. “Also recorded” adds a separate entry of the source.",
  "data": [
    {"molecule": "CC(=O)N(CC(O)CO)c1c(I)c(C(=O)NCC(O)CO)c(I)c(C(=O)NCC(O)CO)c1I", "note": "(stereo not drawn) [iohexol]", "values": [
      {"measurement": "GFR obtained from iohexol analysis", "setting": "[1]", "result": 4.50, "unit": "mL/min/kg"},
      {"measurement": "GFR: Iohexol Plasma Clearance", "setting": "[2]; Day 0, 150 mg/kg iohexol IV, individual dogs (repeat results for two dogs), 150 mg/kg", "result": "2.77 mL/min/kg and 4.00 mL/min/kg and 3.71 mL/min/kg and 3.82 mL/min/kg and 4.40 mL/min/kg"},
      {"measurement": "GFR: Iohexol Plasma Clearance", "setting": "[2]; Day 3 of gentamycin, individual dogs", "result": "2.00 mL/min/kg and 3.45 mL/min/kg and 2.05 mL/min/kg and 4.17 mL/min/kg and 3.06 mL/min/kg"},
      {"measurement": "GFR: Iohexol Plasma Clearance", "setting": "[2]; Day 6 of gentamycin, individual dogs", "result": "2.78 mL/min/kg and 2.05 mL/min/kg and 2.46 mL/min/kg and 1.44 mL/min/kg and 3.36 mL/min/kg"},
      {"measurement": "GFR: Iohexol Plasma Clearance", "setting": "[2]; Day 9 of gentamycin, individual dogs", "result": "1.87 mL/min/kg and 0.10 mL/min/kg and 1.49 mL/min/kg and 2.47 mL/min/kg"},
      {"measurement": "clearance", "setting": "[2]; hound-type mongrel, dog, plasma, iv, 150 mg/kg, GFR: Iohexol Plasma Clearance, Day 0, 150 mg/kg iohexol IV, individual dogs (repeat results for two dogs)", "result": 3.28, "unit": "mL/min/kg"},
      {"measurement": "GFR obtained using iohexol samples drawn for six hours", "setting": "[3]", "result": 2.02, "unit": "mL/min/kg"}
    ]},
    {"molecule": "fluorescein isothiocyanate-inulin [FITC-inulin]", "values": [
      {"measurement": "glomerular filtration / plasma clearance seen as capillary fluorescence intensity over time", "setting": "[4]", "result": "rapidly filtered into the proximal tubular lumen; also recorded: immediate plasma clearance"}
    ]},
    {"molecule": "gentamycin", "values": [
      {"measurement": "BUN", "setting": "dogs; Day 0 (baseline)", "result": "20 mg/dl (2×) and 14 mg/dl and 16 mg/dl and 9 mg/dl"},
      {"measurement": "UPC (urine protein-to-creatine ratio)", "setting": "dogs; Day 0 (baseline)", "result": "0.1 (4×) and 0.2"},
      {"measurement": "USG (urine specific gravity)", "setting": "dogs; Day 0 (baseline)", "result": "1.014 and 1.030 and 1.048 and 1.044 and 1.052"},
      {"measurement": "Creatinine", "setting": "dogs; Day 0 (first day of injection, baseline)", "result": "0.8 mg/dl and 1.1 mg/dl and 0.9 mg/dl (2×) and 0.7 mg/dl"},
      {"measurement": "Creatinine", "setting": "dogs; Day 3", "result": "0.9 mg/dl (2×) and 1.0 mg/dl (2×) and 0.8 mg/dl"},
      {"measurement": "BUN", "setting": "dogs; Day 3", "result": "16 mg/dl and 12 mg/dl (2×) and 15 mg/dl and 14 mg/dl"},
      {"measurement": "UPC (urine protein-to-creatine ratio)", "setting": "dogs; Day 3", "result": "0.5 and 1.0 and 0.2 and 0.3 (2×)"},
      {"measurement": "USG (urine specific gravity)", "setting": "dogs; Day 3", "result": "1.008 and 1.014 (2×) and 1.000 and 1.010"},
      {"measurement": "Creatinine", "setting": "dogs; Day 6", "result": "1.2 mg/dl and 1.5 mg/dl and 1.4 mg/dl and 1.0 mg/dl (2×)"},
      {"measurement": "BUN", "setting": "dogs; Day 6", "result": "22 mg/dL and 15 mg/dL and 16 mg/dL and 10 mg/dL and 14 mg/dL"},
      {"measurement": "UPC (urine protein-to-creatine ratio)", "setting": "dogs; Day 6", "result": "0.5 (2×) and 0.0 (2×) and 0.6"},
      {"measurement": "USG (urine specific gravity)", "setting": "dogs; Day 6", "result": "1.009 and 1.003 and 1.007 and 1.005 and 1.010"},
      {"measurement": "Creatinine", "setting": "dogs; Day 9", "result": "1.5 mg/dL and 5.3 mg/dL and 1.9 mg/dL and 1.6 mg/dL and 1.1 mg/dL"},
      {"measurement": "BUN", "setting": "dogs; Day 9", "result": "16 mg/dl (2×) and 97 mg/dl and 18 mg/dl and 14 mg/dl"},
      {"measurement": "UPC (urine protein-to-creatine ratio)", "setting": "dogs; Day 9", "result": "2.1 and 2.8 and 3.1 and 1.7 and 1.6"},
      {"measurement": "USG (urine specific gravity)", "setting": "dogs; Day 9", "result": "1.006 (2×) and 1.011 and 1.004 and 1.005"}
    ]}
  ]
}
